Where two headings read alike, the source gives them in different places.
What was measured:
[1] = biological target: T1, mouse OX2R (Mus musculus, UniProt P58308); test: FLIPR orexin A-stimulated calcium accumulation, mouse OX2R; type: cell-based; conditions: HEK cells
T1 construct: expressed in transfected cells; host or cells: HEK; cells from GNF, San Diego
T1 sequence (P58308 1-460): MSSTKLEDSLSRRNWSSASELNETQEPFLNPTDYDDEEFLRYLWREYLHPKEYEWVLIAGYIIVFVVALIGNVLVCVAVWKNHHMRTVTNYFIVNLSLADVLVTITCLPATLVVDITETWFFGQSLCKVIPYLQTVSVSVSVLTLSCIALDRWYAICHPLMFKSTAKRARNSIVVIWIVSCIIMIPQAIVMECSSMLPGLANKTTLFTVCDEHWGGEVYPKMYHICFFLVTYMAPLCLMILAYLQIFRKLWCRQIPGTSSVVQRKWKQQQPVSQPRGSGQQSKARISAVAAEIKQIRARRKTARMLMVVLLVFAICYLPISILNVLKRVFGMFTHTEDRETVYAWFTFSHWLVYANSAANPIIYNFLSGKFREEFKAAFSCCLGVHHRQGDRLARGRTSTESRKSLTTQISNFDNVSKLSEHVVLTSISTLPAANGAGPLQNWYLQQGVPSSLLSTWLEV
Description: (§1) Chinese Hamster Ovary (CHO) cells stably transfected with the cDNA encoding the human OX1R (CHO-hOX1) or OX2R (CHO-hOX2) were used (kindly provided by T. Cremer and Dr. S. Geisse, NIBR Basel, Switzerland). For measurements of calcium accumulation using FLIPR® (Fluorescent Imaging Plate Reader) assay, CHO or Human Embryonic Kidney (HEK) cells stably expressing mouse, rat or human OX1R or OX2R (kindly provided by Dr. A. Chen, GNF, San Diego, CA, USA) were used. […] Cells were maintained in a humidified incubator at 37°C in 5% CO2. For crude cell membrane preparations, cells were washed and harvested in 10 mM HEPES (pH 7.5), and centrifuged at 4°C for 5 min at 2500 g. The cell pellet was either stored at −80°C or used directly.
Cells expressing either human, rat or mouse OX1R or OX2R were seeded at 8,000 cells/well in black 384 well clear bottom plates and incubated overnight at 37°C. The following day, medium was discarded and cells loaded with 50 μ l of 1 mM Fluo-4 AM (Invitrogen F14202) in dimethyl sulfoxide in working buffer (Hanks' balanced salt solution, 10 mM HEPES) and incubated for 60 min at 37°C. The loading buffer was removed and cells were washed with 100 μ l working buffer containing […], 0.1% BSA, and 2.5 mM Probenecid (pH 7.4) to remove the excess Fluo-4 AM. […] The assay plate was then transferred to the Molecular Devices-FLIPR384. The baseline calcium signal was recorded for 10 s, then the antagonist of interest was injected (10 μl at 3 times the final concentration) and the calcium signal recorded every second for 1 min, then every 2 s 40 times.

[2] = biological target: T2, human OX1R (Homo sapiens, UniProt O43613); test: [3H]-BBAC competition binding over time, CHO-hOX1 membranes
T2 construct: expressed in transfected cells; host or cells: CHO; cells from GNF, San Diego
T2 sequence (O43613 1-425): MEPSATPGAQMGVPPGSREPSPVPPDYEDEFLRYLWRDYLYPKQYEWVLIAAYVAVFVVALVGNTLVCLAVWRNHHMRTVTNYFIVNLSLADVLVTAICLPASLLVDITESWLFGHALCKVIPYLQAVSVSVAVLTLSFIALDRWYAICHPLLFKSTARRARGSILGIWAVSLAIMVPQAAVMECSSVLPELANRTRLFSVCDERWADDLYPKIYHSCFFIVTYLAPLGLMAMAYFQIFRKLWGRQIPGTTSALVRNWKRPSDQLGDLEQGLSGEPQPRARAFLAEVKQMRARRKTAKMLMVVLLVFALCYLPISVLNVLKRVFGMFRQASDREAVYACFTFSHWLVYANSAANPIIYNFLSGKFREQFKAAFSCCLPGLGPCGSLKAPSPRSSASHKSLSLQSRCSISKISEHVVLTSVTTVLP
Description: as §1
Cell membranes were resuspended in binding assay buffer at 4°C (10 mM HEPES, pH 7.5, 0.5% (w/v) bovine serum albumin (BSA), 5 mM MgCl2, 1 mM CaCl2, and 0.05% Tween 20) and homogenized with a Polytron homogenizer at 50 Hz for 20 s. […] Radioactivity was quantified using a TopCount™ microplate counter (Perkin Elmer).
All data was analyzed using GraphPad Prism 4.0 (GraphPad, San Diego, USA). The saturation data was fit to a non-linear regression model for saturation binding with consideration for one site binding. […] Competition binding data was fit to a non-linear regression model for competition binding with consideration for variable one site binding with a non-fixed Hill slope.

[3] = antagonist incubation 1 h, read-out: pKi (converted)
[4] = antagonist incubation 2 h, read-out: pKi (converted)
[5] = antagonist incubation 4 h, read-out: pKi (converted)
[6] = pKi, antagonist incubation 30 min
[7] = antagonist incubation 30 min, read-out: pKi (converted)
[8] = competition for 4.6 nM [3H]-BBAC, 15 min to 4 h, human OX1R

Row | SMILES | Ki [1, 3] [nM] | Ki [1, 4] [nM] | Ki [1, 5] [nM] | Ki [1, 6] [nM] | effect of incubation time on competition curves [2] | Ki [1, 7] [nM] | effect of incubation time on competition curves [2, 8] | Ki ([1]; pKi, antagonist incubation 1 h) [nM] | Ki ([1]; pKi, antagonist incubation 2 h) [nM] | Ki ([1]; pKi, antagonist incubation 4 h) [nM]
1 | CNC(=O)[C@@H](c1ccccc1)N1CCc2cc(OC)c(OC)cc2[C@@H]1CCc1ccc(C(F)(F)F)cc1 [Almorexant] | 9.33 | 8.13 | 4.17 | 19.1 | shifted to the left with time moderately | – | – | – | – | –
2 | Cc1ccc(-c2ncccn2)c(C(=O)N2C[C@H](COc3ccc(F)cn3)CC[C@H]2C)c1 [Filorexant] | 2.09 | 1.45 | 1.29 | – | – | 2.14 | rather insensitive to incubation time | – | – | –
3 | COc1ccnc(N2CCC3(CCCN(Cc4c[nH]c5ccccc45)C3=O)CC2)n1 [IPSU, 2-((1H-Indol-3-yl)methyl)-9-(4-methoxypyrimidin-2-yl)-2,9-diazaspiro[5.5]undecan-1-one] | 79.4 | 55 | 60.3 | – | – | 70.8 | do not show time-dependency | – | – | –
4 | Cc1nc(C(=O)N2CCCC[C@H]2CNC(=O)c2cccc3occc23)c(-c2ccc(F)cc2)s1 [SB-649868] | 2.82 | 1.17 | 0.912 | – | – | 1.82 | shifted to the left over time up to 4 h | – | – | –
5 | Cc1ccc(-n2nccn2)c(C(=O)N2CCN(c3nc4cc(Cl)ccc4o3)CC[C@H]2C)c1 [Suvorexant] | – | – | – | 10.2 | shifted to the left over time | – | – | 6.76 | 5.75 | 4.47

From paper PMC3847553, “Kinetic properties of “dual” orexin receptor antagonists at OX1R and OX2R orexin receptors” (Frontiers in Neuroscience, 2013)
